How the values were obtained:
[1] = tested on: Colon 38 (C38, a C57BL/6J mouse colon adenocarcinoma cell line) tumor; assay: C38 (Colon 38) subcutaneous tumor model, tumor volume; assay type: in vivo; conditions: female C57BL/6J mice, 20 per group; 4SC-202 20 mg/kg PO twice daily x24; antibodies 10 mg/kg IP (anti-PD1 TWx2, anti-LAG-3 Q3Dx4); data to day 27
Procedure: • 4SC-202 (tosylate salt). • Anti-PD1 antibody (clone: RMP1-14, catalog: BE0146, isotype: Rat IgG2a, Bioxcell), • Anti-LAG-3 antibody (clone: C9B7W, catalog: BE0174, isotype: Rat lgG1, Bioxcell),
• 4SC-202 was suspended in 2% aqueous methocel solution at 2 mg/ml (active compound). • Anti-PD-1 and anti-LAG3 antibody was diluted with PBS in order to reach final concentration of 1 mg/ml.
• 4SC-202 was administered at 20 mg/kg twice daily, based on 4SC-202 free base. • The anti-PD-1 and anti-LAG3 antibody was injected at 10 mg/kg per injection,
• 4SC-202 was administered by oral gavage (per os, PO) via a gavage tube. • The antibodies were injected intraperitoneally into the peritoneal cavity of mice. • In all cases, the administration volume was 10 mUkg adjusted to the most recent individual body weight of mice.
Colon 38 (C38, a C57BL/6J mouse colon adenocarcinoma cell line) tumor fragments.
The C38 fragments are stored frozen in DMSO/SVF/RPMI 1640 medium (10/10/80) in liquid nitrogen until use. In the study part 1, C38 frozen fragments were thawed at 37° C. for 5 min, rinsed twice in RPMI 1640 medium before subcutaneous (SC) implantation in mice.
Thirty-five (35) female C57BL/6J mice were subcutaneously implanted into the right flank with C38 tumor fragments. […]

[2] = tested on: different types of blood cancer; conditions: cited from earlier work
[3] = 24 heavily pre-treated patients with different types of blood cancer

Cn1cc(-c2ccc(S(=O)(=O)n3ccc(/C=C/C(=O)Nc4ccccc4N)c3)cc2)cn1 [Compound 4SC-202, (E)-N-(2-aminophenyl)-3-(1-((4-(1-methyl-1H-pyrazol-4-yl)phenyl)sulfonyl)-1H-pyrrol-3-yl)acrylamide]
tumor growth reduction / anti-tumoral efficacy (in words) [1]: reduced tumor growth to a certain extent
disease control [2, 3]: 83 % of the patients
long-term stabilization [2, 3]: 50 % of patients
tolerability [2, 3]: well tolerated with few and/or manageable adverse events
complete remission, duration ([2]; one complete remission among 24 heavily pre-treated patients): 28 months
partial responder, duration ([2]; one partial responder among 24 heavily pre-treated patients): 8 months

Reference: patent US20230201161A1, “Combination comprising HDAC inhibitor, LAG-3 inhibitor and a PD-1 inhibitor or PD-L1 inhibitor for cancer treatment” (4SC AG, priority 2018, published 2023)
